Test results reported in ChEMBL document CHEMBL1158131, “Daryamides A-C, weakly cytotoxic polyketides from a marine-derived actinomycete of the genus Streptomyces strain CNQ-085” (J Nat Prod, 2006).
Converted amounts (≈) assume the structure as drawn. The source made the active and inactive calls. The rule behind the calls is not given here.

Columns and labels:
HCT-116 = experiment: Cytotoxicity against human HCT116 cells; type: functional, cell-based
Candida albicans = experiment: Antifungal activity against Candida albicans; type: functional
Staphylococcus aureus = experiment: Antibacterial activity against methicillin-resistant Staphylococcus aureus; type: functional, organism-based

Structure (SMILES)	IC50 (HCT-116)	Activity (Candida albicans)	Activity (Staphylococcus aureus)	MIC (Candida albicans)
CC(C)C/C=C/C=C/C(N)=O	21.7 µg/mL (≈ 142 µM)	inactive	inactive	–
CC(C)C/C=C/C=C/C(=O)NC1=CC(O)(CCC(N)=O)C=CC1=O (configuration not stated) [DARYAMIDE B]	9.99 µg/mL (≈ 30.1 µM)	–	inactive	125 µg/mL (≈ 376 µM)
CC(C)C/C=C/C=C/C(=O)NC1=C[C@@](O)(CCC(N)=O)[C@H](O)CC1=O [DARYAMIDE A]	3.15 µg/mL (≈ 8.99 µM)	–	inactive	62.5 µg/mL (≈ 178 µM)
CC(C)/C=C/C=C/C(=O)NC1=CC(O)(CCC(N)=O)C=CC1=O (configuration not stated) [DARYAMIDE C]	10 µg/mL (≈ 31.5 µM)	inactive	inactive	–
